Laboratory results reported in patent US8853246B2 (Dow AgroSciences LLC, priority 2009, dated 2014).
Where two headings read alike, the source gives them in different places.

Tests used:
[1] = tested on: Sweetpotato Whitefly-Crawler (Bemisia Tabaci); assay: Insecticidal test for sweetpotato whitefly-crawler in foliar spray assay (col. BEMITA); assay type: in vivo; conditions: Bemisia tabaci, read-out: BEMITA 200 ppm (Corrected % Control, rating)
In short: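 Percent control, Abbott-corrected against diluent-sprayed plants, from microscope counts of live nymphs 8-9 days after treatment. Test solution at 200 ppm in 0.025% aqueous Tween 20 applied to both leaf sides of egg-infested cotton after a 5-6 day hatch period (82° F, 50% RH).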

[2] = tested on: Green Peach Aphid (Myzus Persicae); assay: Insecticidal test for green peach aphid in foliar spray assay (col. MYZUPE); assay type: in vivo; conditions: Myzus persicae, 72 h, read-out: MYZUPE 200 ppm (Corrected % Control, rating)
In short: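 Corrected % control derives from microscope counts of live aphids per plant, treated against diluent-only checks, 3 days after foliar spraying at ~25 °C and 40% RH. Test solution was 200 ppm in 0.025% aqueous Tween 20, applied to both leaf sides of infested cabbage seedlings, four pots each.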

## Cc1nc(-c2cccnc2)sc1NC(=O)Cn1nc(C)c(S(=O)(=O)N(C)C)c1C [Compound 389]
[1]; sweetpotato whitefly-crawler
  pest or weed control at 200 ppm: < 80%
other
  melting point: 214 to 215 °C
[2]; green peach aphid
  pest or weed control at 200 ppm: < 80%

## CSCCNC(=O)N(C)c1sc(-c2cccnc2)nc1C [Compound 177]
[1]; sweetpotato whitefly-crawler
  pest or weed control at 200 ppm: < 80%
other
  melting point: 115 to 119 °C
[2]; green peach aphid
  pest or weed control at 200 ppm: 80 to 100%

## CSCC(C)C(=O)Nc1sc(-c2ccc(F)nc2)nc1C (stereo not drawn) [Compound 159]
[1]; sweetpotato whitefly-crawler
  pest or weed control at 200 ppm: 80 to 100%
other
  melting point: 143 to 146 °C
[2]; green peach aphid
  pest or weed control at 200 ppm: 80 to 100%

## CCN(C(=O)C(C)CS(C)(=O)=O)c1sc(-c2cccnc2)nc1Cl (stereo not drawn) [Compound 349]
[1]; sweetpotato whitefly-crawler
  pest or weed control at 200 ppm: 80 to 100%
other
  melting point: 152 to 154 °C
[2]; green peach aphid
  pest or weed control at 200 ppm: 80 to 100%

## CSCC(C)C(=O)N(C(=O)OC(C)(C)C)c1sc(-c2cncc(C#N)c2)nc1C (stereo not drawn) [Compound 158]
[1]; sweetpotato whitefly-crawler
  pest or weed control at 200 ppm: < 80%
other
  melting point: 125 to 128 °C
[2]; green peach aphid
  pest or weed control at 200 ppm: < 80%

## COC(=O)CCC(=O)N(C)c1cnc(-c2cccnc2)s1 [Compound 27]
[1]; sweetpotato whitefly-crawler
  pest or weed control at 200 ppm: < 80%
other
  melting point: 127 to 129 °C
[2]; green peach aphid
  pest or weed control at 200 ppm: 80 to 100%

## CC(C)C(=O)N(C)c1cnc(-c2cncc(F)c2)s1 [Compound 32]
[1]; sweetpotato whitefly-crawler
  pest or weed control at 200 ppm: 80 to 100%
other
  melting point: 156 to 158 °C
[2]; green peach aphid
  pest or weed control at 200 ppm: 80 to 100%

## CSCCN(C(=O)OC(C)(C)C)c1sc(-c2cccnc2)nc1C [Compound 567]
[1]; Abbott's correction formula
  pest or weed control at 200 ppm: < 80%
other
  melting point: 63 to 68 °C
[2]; Abbott's correction formula
  pest or weed control at 200 ppm: 80 to 100%

## CSCC(C)C(=O)N(C)c1cnc(-c2cncc(F)c2)s1 (stereo not drawn) [Compound 31]
[1]; sweetpotato whitefly-crawler
  pest or weed control at 200 ppm: 80 to 100%
other
  melting point: 75 to 77 °C
[2]; green peach aphid
  pest or weed control at 200 ppm: 80 to 100%

## CCCC(C)OC(=O)Nc1sc(-c2cccnc2)nc1C (stereo not drawn) [Compound 376]
[1]; sweetpotato whitefly-crawler
  pest or weed control at 200 ppm: 80 to 100%
other
  melting point: 88 to 94 °C
[2]; green peach aphid
  pest or weed control at 200 ppm: 80 to 100%

## Cc1nc(-c2cncc(F)c2)sc1NC(=O)C(C)C [Compound 140]
[1]; sweetpotato whitefly-crawler
  pest or weed control at 200 ppm: < 80%
other
  melting point: 155 to 159 °C
[2]; green peach aphid
  pest or weed control at 200 ppm: 80 to 100%

## CC(C)(C)OC(=O)N(COCc1ccccc1)c1cnc(-c2cccnc2)s1 [Compound 265]
[1]; sweetpotato whitefly-crawler
  pest or weed control at 200 ppm: < 80%
other
  melting point: 98 to 99 °C
[2]; green peach aphid
  pest or weed control at 200 ppm: 80 to 100%

## CSCC(C)C(=O)N(C)c1sc(-c2cncc(Br)c2)nc1C (stereo not drawn) [Compound 296]
[1]; sweetpotato whitefly-crawler
  pest or weed control at 200 ppm: 80 to 100%
other
  melting point: 79 to 81 °C
[2]; green peach aphid
  pest or weed control at 200 ppm: 80 to 100%

## CN(C(=O)OC(C)(C)C)c1sc(-c2cncc(F)c2)nc1I [Compound 497]
[1]; Abbott's correction formula
  pest or weed control at 200 ppm: 80 to 100%
other
  melting point: 70 to 71 °C
[2]; Abbott's correction formula
  pest or weed control at 200 ppm: 80 to 100%

## CSCCC(=O)N(C)c1sc(-c2cnccc2F)nc1Cl [Compound 515]
[1]; Abbott's correction formula
  pest or weed control at 200 ppm: < 80%
other
  melting point: 74 to 76 °C
[2]; Abbott's correction formula
  pest or weed control at 200 ppm: < 80%

## CSCCC(=O)Nc1sc(-c2cncc(F)c2)nc1Cl [Compound 421]
[1]; sweetpotato whitefly-crawler
  pest or weed control at 200 ppm: < 80%
other
  melting point: 153 to 154 °C
[2]; green peach aphid
  pest or weed control at 200 ppm: 80 to 100%

## CC(C)C(=O)N(C)c1sc(-c2cncc(F)c2)nc1Cl [Compound 263]
[1]; sweetpotato whitefly-crawler
  pest or weed control at 200 ppm: 80 to 100%
other
  melting point: 123 to 125 °C
[2]; green peach aphid
  pest or weed control at 200 ppm: 80 to 100%

## CCN(C(=O)c1cocn1)c1sc(-c2cccnc2)nc1Cl [Compound 570]
[1]; Abbott's correction formula
  pest or weed control at 200 ppm: < 80%
other
  melting point: 118 to 120 °C
[2]; Abbott's correction formula
  pest or weed control at 200 ppm: 80 to 100%

## CSCCC(=O)Nc1sc(-c2cncc(F)c2)nc1C [Compound 142]
[1]; sweetpotato whitefly-crawler
  pest or weed control at 200 ppm: < 80%
other
  melting point: 126 to 130 °C
[2]; green peach aphid
  pest or weed control at 200 ppm: 80 to 100%

## CSCC(C)(C)C(=O)N(C)c1sc(-c2cccnc2)nc1C [Compound 34]
[1]; sweetpotato whitefly-crawler
  pest or weed control at 200 ppm: 80 to 100%
other
  melting point: 83 to 88 °C
[2]; green peach aphid
  pest or weed control at 200 ppm: 80 to 100%

## Cc1nn(CC(=O)N(C)c2sc(-c3cccnc3)nc2Cl)c(C)c1S(=O)(=O)N(C)C [Compound 390]
[1]; sweetpotato whitefly-crawler
  pest or weed control at 200 ppm: 80 to 100%
other
  melting point: 185 to 186 °C
[2]; green peach aphid
  pest or weed control at 200 ppm: < 80%

## CN(C(=O)c1cccnc1)c1cnc(-c2cccnc2)s1 [Compound 26]
[1]; sweetpotato whitefly-crawler
  pest or weed control at 200 ppm: < 80%
other
  melting point: 173 to 175 °C
[2]; green peach aphid
  pest or weed control at 200 ppm: < 80%

## CSCC(=O)N(C)c1sc(-c2cccnc2)nc1Cl [Compound 369]
[1]; sweetpotato whitefly-crawler
  pest or weed control at 200 ppm: 80 to 100%
other
  melting point: 111 to 114 °C
[2]; green peach aphid
  pest or weed control at 200 ppm: 80 to 100%

## CSCC(=O)Nc1sc(-c2cccnc2)nc1C [Compound 372]
[1]; sweetpotato whitefly-crawler
  pest or weed control at 200 ppm: 80 to 100%
other
  melting point: 164 to 167 °C
[2]; green peach aphid
  pest or weed control at 200 ppm: 80 to 100%

## CS(=O)(=O)CCC(=O)Nc1sc(-c2cncc(F)c2)nc1Cl [Compound 459]
[1]; Abbott's correction formula
  pest or weed control at 200 ppm: < 80%
other
  melting point: 239 to 240 °C
[2]; Abbott's correction formula
  pest or weed control at 200 ppm: 80 to 100%

## COC(=O)Nc1sc(-c2cccnc2)nc1C [Compound 202]
[1]; sweetpotato whitefly-crawler
  pest or weed control at 200 ppm: < 80%
other
  melting point: 159 to 160 °C
[2]; green peach aphid
  pest or weed control at 200 ppm: < 80%

## CN(C(=O)OC(C)(C)C)c1sc(-c2cncc(F)c2)nc1Cl [Compound 476]
[1]; Abbott's correction formula
  pest or weed control at 200 ppm: < 80%
other
  melting point: 119 to 120 °C
[2]; Abbott's correction formula
  pest or weed control at 200 ppm: 80 to 100%

## CSC(C)CC(=O)Nc1sc(-c2cccnc2)nc1Cl (stereo not drawn) [Compound 487]
[1]; Abbott's correction formula
  pest or weed control at 200 ppm: 80 to 100%
other
  melting point: 120 to 125 °C
[2]; Abbott's correction formula
  pest or weed control at 200 ppm: 80 to 100%

## CN(C(=O)C(C)(C)C[S+](C)[O-])c1cnc(-c2cccnc2)s1 (stereo not drawn) [Compound 80]
[1]; sweetpotato whitefly-crawler
  pest or weed control at 200 ppm: 80 to 100%
other
  melting point: 118 to 122 °C
[2]; green peach aphid
  pest or weed control at 200 ppm: 80 to 100%

## CC(CS(C)(=O)=O)C(=O)N(C)c1sc(-c2cncc(F)c2)nc1Cl (stereo not drawn) [Compound 271]
[1]; sweetpotato whitefly-crawler
  pest or weed control at 200 ppm: 80 to 100%
other
  melting point: 151 to 154 °C
[2]; green peach aphid
  pest or weed control at 200 ppm: 80 to 100%

## CC(C[S+](C)[O-])C(=O)N(C)c1cnc(-c2cccnc2)s1 (stereo not drawn) [Compound 79]
[1]; sweetpotato whitefly-crawler
  pest or weed control at 200 ppm: < 80%
other
  melting point: 135 to 140 °C
[2]; green peach aphid
  pest or weed control at 200 ppm: 80 to 100%

## CSCC(C)C(=O)N(C)c1cnc(-c2cccnc2)s1 (stereo not drawn) [Compound 28]
[1]; sweetpotato whitefly-crawler
  pest or weed control at 200 ppm: 80 to 100%
other
  melting point: 98 to 100 °C
[2]; green peach aphid
  pest or weed control at 200 ppm: 80 to 100%

## CCS(=O)(=O)N1CCCC(C(=O)Nc2sc(-c3cccnc3)nc2C)C1 (stereo not drawn) [Compound 388]
[1]; sweetpotato whitefly-crawler
  pest or weed control at 200 ppm: 80 to 100%
other
  melting point: 190 to 194 °C
[2]; green peach aphid
  pest or weed control at 200 ppm: 80 to 100%

## C/C=C/C(=O)N(C)c1sc(-c2cccnc2)nc1Br [Compound 526]
[1]; Abbott's correction formula
  pest or weed control at 200 ppm: 80 to 100%
other
  melting point: 121 to 125 °C
[2]; Abbott's correction formula
  pest or weed control at 200 ppm: 80 to 100%

## Cc1nc(-c2cncc(Br)c2)sc1N(C)C(=O)OC(C)(C)C [Compound 251]
[1]; sweetpotato whitefly-crawler
  pest or weed control at 200 ppm: 80 to 100%
other
  melting point: 74 to 76 °C
[2]; green peach aphid
  pest or weed control at 200 ppm: < 80%

## CN(CC[S+](C)[O-])C(=O)N(C)c1cnc(-c2cncc(F)c2)s1 (stereo not drawn) [Compound 83]
[1]; sweetpotato whitefly-crawler
  pest or weed control at 200 ppm: 80 to 100%
other
  melting point: 95 to 99 °C
[2]; green peach aphid
  pest or weed control at 200 ppm: 80 to 100%

## CCSCC(=O)N(C)c1sc(-c2cccnc2)nc1Cl [Compound 370]
[1]; sweetpotato whitefly-crawler
  pest or weed control at 200 ppm: 80 to 100%
other
  melting point: 68 to 71 °C
[2]; green peach aphid
  pest or weed control at 200 ppm: 80 to 100%

## Cc1nc(-c2cncc(F)c2)sc1NC(=O)C(C)(C)CS(C)(=O)=O [Compound 144]
[1]; sweetpotato whitefly-crawler
  pest or weed control at 200 ppm: < 80%
other
  melting point: 157 to 167 °C
[2]; green peach aphid
  pest or weed control at 200 ppm: 80 to 100%

## CC(C[S+](C)[O-])C(=O)N(C)c1cnc(-c2cncc(F)c2)s1 (stereo not drawn) [Compound 81]
[1]; sweetpotato whitefly-crawler
  pest or weed control at 200 ppm: 80 to 100%
other
  melting point: 68 to 70 °C
[2]; green peach aphid
  pest or weed control at 200 ppm: 80 to 100%

## CC(C)(C)OC(=O)N(C(=O)OC(C)(C)C)c1sc(-c2cncc(F)c2)nc1Br [Compound 317]
[1]; sweetpotato whitefly-crawler
  pest or weed control at 200 ppm: < 80%
other
  melting point: 154 to 156 °C
[2]; green peach aphid
  pest or weed control at 200 ppm: 80 to 100%
